According to patent publication US5698411A, “Method for determining activity of enzymes in metabolically active whole cells” (priority 1995, dated 1997):
One block for each molecule: values may come before it.

Tests used:
Format in all cases: cell-based, human
[1] = test system: granulocytes; test: aberrant enzyme activities in febrile children, granulocytes (Table 7)
[2] = test system: monocytes; test: enzyme activity with fluorogenic substrate, normal monocytes (Table 3A)
[3] = test system: granulocytes; test: enzyme activity with fluorogenic substrate, normal granulocytes (Table 3A)
[4] = test system: lymphocytes; test: aberrant enzyme activities in febrile children, lymphocytes (Table 7)
[5] = test system: monocytes; test: aberrant enzyme activities in febrile children, monocytes (Table 7)
[6] = test system: lymphocytes; test: enzyme activity with fluorogenic substrate, normal lymphocytes (Table 3A)
[7] = P89 Viral Stomatitis, listed as Val/Lys-M
[8] = P95 Viral Syndrome, listed as Val/Lys-M
[9] = P96 Viral Syndrome, listed as Val/Lys-M
[10] = P97 Pyelonephritis, listed as Val/Lys-M
[11] = P88 Enteritis, listed as Z-Gly/Pro-M

aberrant enzyme activity, GRANS ([1]; P92 Adenitis): - (>0.25 Decrease over normal range)
aberrant enzyme activity, GRANS ([1]; P97 Pyelonephritis): .smallcircle.
aberrant enzyme activity, GRANS ([1]; P103 Viral Syndrome): .smallcircle.
NORMAL LEUKOCYTE ENZYME ACTIVITY MONOS Mean [2]: 45.70
NORMAL LEUKOCYTE ENZYME ACTIVITY GRANS Mean [3]: 55.07
aberrant enzyme activity, LYMPHS ([4]; P92 Adenitis): - (>0.25 Decrease over normal range)
aberrant enzyme activity, LYMPHS ([4]; P97 Pyelonephritis): .smallcircle.
aberrant enzyme activity, LYMPHS ([4]; P103 Viral Syndrome): .smallcircle.
aberrant enzyme activity, MONOS ([5]; P92 Adenitis): - (>0.25 Decrease over normal range)
aberrant enzyme activity, MONOS ([5]; P97 Pyelonephritis): .smallcircle.
aberrant enzyme activity, MONOS ([5]; P103 Viral Syndrome): .smallcircle.
NORMAL LEUKOCYTE ENZYME ACTIVITY LYMPHS Mean [6]: 20.62
SMILES: C[C@@H](O)[C@H](NC(=O)OCc1ccccc1)C(=O)N1CCC[C@H]1C(=O)Nc1ccc2c(c1)Oc1cc(NC(=O)[C@@H]3CCCN3C(=O)[C@@H](NC(=O)OCc3ccccc3)[C@@H](C)O)ccc1C21OC(=O)c2ccccc21 [Z-TP6.5M]

SMILES: CC(C)[C@H](N)C(=O)N[C@@H](CCCCN)C(=O)Nc1ccc2c(c1)Oc1cc(NC(=O)[C@H](CCCCN)NC(=O)[C@@H](N)C(C)C)ccc1C21OC(=O)c2ccccc21 [VK-M, (Val-Lys)2 Rho 110 (modified)]
aberrant enzyme activity, GRANS ([1]; P88 Enteritis): - (>0.25 Decrease over normal range)
aberrant enzyme activity, GRANS [1, 7]: .smallcircle.
aberrant enzyme activity, GRANS ([1]; P92 Adenitis): .smallcircle.
aberrant enzyme activity, GRANS [1, 8]: + (>0.25 Increase over normal range)
aberrant enzyme activity, GRANS [1, 9]: + (>0.25 Increase over normal range)
aberrant enzyme activity, GRANS [1, 10]: .smallcircle.
aberrant enzyme activity, GRANS ([1]; P101 Fever -- Unknown Origin): .smallcircle.
aberrant enzyme activity, GRANS ([1]; P102 UTI, listed as Val/Lys-M): - (>0.25 Decrease over normal range)
aberrant enzyme activity, GRANS ([1]; P103 Viral Syndrome): .smallcircle.
NORMAL LEUKOCYTE ENZYME ACTIVITY MONOS Mean [2]: 43.37
NORMAL LEUKOCYTE ENZYME ACTIVITY GRANS Mean [3]: 4.31
aberrant enzyme activity, LYMPHS ([4]; P88 Enteritis): .smallcircle.
aberrant enzyme activity, LYMPHS ([4]; P89 Viral Stomatitis): .smallcircle.
aberrant enzyme activity, LYMPHS ([4]; P92 Adenitis): .smallcircle.
aberrant enzyme activity, LYMPHS [4, 8]: + (>0.25 Increase over normal range)
aberrant enzyme activity, LYMPHS [4, 9]: + (>0.25 Increase over normal range)
aberrant enzyme activity, LYMPHS [4, 10]: + (>0.25 Increase over normal range)
aberrant enzyme activity, LYMPHS ([4]; P101 Fever -- Unknown Origin): .smallcircle.
aberrant enzyme activity, LYMPHS ([4]; P102 UTI): .smallcircle.
aberrant enzyme activity, LYMPHS ([4]; P103 Viral Syndrome): .smallcircle.
aberrant enzyme activity, MONOS ([5]; P88 Enteritis): - (>0.25 Decrease over normal range)
aberrant enzyme activity, MONOS [5, 7]: .smallcircle.
aberrant enzyme activity, MONOS ([5]; P92 Adenitis, listed as Val/Lys-M): - (>0.25 Decrease over normal range)
aberrant enzyme activity, MONOS ([5]; P95 Viral Syndrome): .smallcircle.
aberrant enzyme activity, MONOS ([5]; P96 Viral Syndrome): .smallcircle.
aberrant enzyme activity, MONOS ([5]; P97 Pyelonephritis): .smallcircle.
aberrant enzyme activity, MONOS ([5]; P101 Fever -- Unknown Origin, listed as Val/Lys-M): - (>0.25 Decrease over normal range)
aberrant enzyme activity, MONOS ([5]; P102 UTI): - (>0.25 Decrease over normal range)
aberrant enzyme activity, MONOS ([5]; P103 Viral Syndrome, listed as Val/Lys-M): .smallcircle.
NORMAL LEUKOCYTE ENZYME ACTIVITY LYMPHS Mean [6]: 2.05

aberrant enzyme activity, GRANS [1, 11]: - (>0.25 Decrease over normal range)
aberrant enzyme activity, GRANS ([1]; P92 Adenitis): - (>0.25 Decrease over normal range)
aberrant enzyme activity, GRANS ([1]; P97 Pyelonephritis): .smallcircle.
aberrant enzyme activity, GRANS ([1]; P103 Viral Syndrome): .smallcircle.
NORMAL LEUKOCYTE ENZYME ACTIVITY MONOS Mean [2]: 119.81
NORMAL LEUKOCYTE ENZYME ACTIVITY GRANS Mean [3]: 130.62
aberrant enzyme activity, LYMPHS [4, 11]: - (>0.25 Decrease over normal range)
aberrant enzyme activity, LYMPHS ([4]; P89 Viral Stomatitis): - (>0.25 Decrease over normal range)
aberrant enzyme activity, LYMPHS ([4]; P92 Adenitis): - (>0.25 Decrease over normal range)
aberrant enzyme activity, LYMPHS ([4]; P97 Pyelonephritis, listed as Z-Gly/Pro-M): - (>0.25 Decrease over normal range)
aberrant enzyme activity, LYMPHS ([4]; P103 Viral Syndrome): - (>0.25 Decrease over normal range)
aberrant enzyme activity, MONOS [5, 11]: - (>0.25 Decrease over normal range)
aberrant enzyme activity, MONOS ([5]; P89 Viral Stomatitis): .smallcircle.
aberrant enzyme activity, MONOS ([5]; P92 Adenitis): - (>0.25 Decrease over normal range)
aberrant enzyme activity, MONOS ([5]; P97 Pyelonephritis): .smallcircle.
aberrant enzyme activity, MONOS ([5]; P103 Viral Syndrome): .smallcircle.
NORMAL LEUKOCYTE ENZYME ACTIVITY LYMPHS Mean [6]: 53.74
SMILES: O=C(NCC(=O)N1CCC[C@H]1C(=O)Nc1ccc2c(c1)Oc1cc(NC(=O)[C@@H]3CCCN3C(=O)CNC(=O)OCc3ccccc3)ccc1C21OC(=O)c2ccccc21)OCc1ccccc1 [Z-GP-M, (carbobenzyloxycarbonyl-Gly-Pro)2 Rho 110 (modified)]
